Format in all cases: in vivo, human
A short description of experiment [1]: phase I/II double-blind, randomized, placebo-controlled, dose-escalation trial of intravenous bFGF (FIBLAST) in stroke patients; change in NIH Stroke Scale score, admission vs discharge. Particulars: for number of treated patients with ΔNIH SS < 4 / number of treated patients with ΔNIH SS ≧ 4 (improved outcome): 2 × 2 contingency table. The method, then:
Sixty-six patients were entered into a phase I/II trial of basic fibroblast growth factor (bFGF), FIBLAST. This trial was a double-blind, randomized, placebo-controlled, dose-escalation, and three month follow-up study of intravenous infusion of basic fibroblast growth factor (bFGF). Patients were randomized either to placebo or one of six different doses of bFGF ranging from […] to 150 μg/kg. Eleven patients were enrolled at Massachusetts General Hospital (MGH). Each patient underwent MRI imaging according to the standard MGH protocol within the first ten hours of symptom onset, and follow-up imaging at discharge.
The primary efficacy measure was change in NIH Stroke Scale (NIHSS) score measured at admission compared to that reported at discharge. Patients were classified as having an improved outcome if the NIH SS score decreased by more than four points. Two by two contingency tables were computed for the placebo versus the bFGF treated patients and a Fisher's Exact test performed.
Patients with greater than a four point change on the NIH SS score were classified as having a favorable outcome. A 2×2 contingency table, shown in Table 4, was evaluated for statistical independence between treated and placebo groups using Fisher's exact test.

The nature of experiment [2]: GLM risk map of infarction from initial DWI/PWI compared with final infarct on follow-up imaging in bFGF trial patients. The conditions noted are these: Patient 7; full dose (150 ug/kg); 19 day follow-up FLAIR. The source says: A generalized linear model (GLM) of risk of tissue infarction was generated from retrospective studies of hyperacute cerebral ischemia patients who received diffusion and perfusion weighted imaging within twelve hours of presenting with symptoms. Only patients with cortical infarcts caused by occlusion of major cerebral arteries were included in the training data. […] The volumetric diffusion and perfusion data were coregistered utilizing an automated image registration software package (AIR 3.08). Utilizing a supervised learning algorithm and logistic regression, the parameters for the GLM were computed using coregistered data sets, as described in the previous section.
In one embodiment, a GLM algorithm is used to model tissue outcome. Tissue outcome y can be modeled as a binary variable (normal/abnormal) and therefore a Bernoulli probability density function assumed for its distribution. The logistic function can then be used to compute y as set forth below in Equation 1: [formula] where y is an estimate of the risk of infarction, x represents an input vector that can include an initial T2, ADC, rCBF (relative cerebral blood flow), rCBV (relative cerebral blood volume) and MTT (mean transmit time) data and B the calculated coefficients.
The dose of bFGF was correlated with the positive predictive value (PPV) of the GLM model described in the previous section. […]

The nature of experiment [3]: phase I/II double-blind, randomized, placebo-controlled, dose-escalation trial of intravenous bFGF (FIBLAST) in stroke patients; change in NIH Stroke Scale score, admission vs discharge. Particulars: Patient 9*; 3 μg/kg; NIH SS (Initial) 2; follow-up 3 days.
Where [4] appears, read: patients enrolled at MGH, all doses pooled.
Where [5] appears, read: subset of 7 patients evaluated with GLM models.

For basic fibroblast growth factor [bFGF], the “number of treated patients with ΔNIH SS < 4” value in experiment [1] (setting [4]) was found to be 4; in experiment [1] (setting [5]), 1. Moreover, the “number of treated patients with ΔNIH SS ≧ 4 (improved outcome)” value in experiment [1] (setting [4]) and in experiment [1] (setting [5]) was 4 throughout. Further, the “NIH SS (Discharge)” value in experiment [1] (Patient 3, 9 μg/kg, NIH SS (Initial) 15, follow-up 7 days) was determined as 5; in experiment [1] (Patient 4, 27 μg/kg, NIH SS (Initial) 15, follow-up 7 days) it was 11; in experiment [1] (Patient 5, 75 μg/kg, NIH SS (Initial) 6, follow-up 4 days) it was 1; in experiment [1] (Patient 6, 150 μg/kg, NIH SS (Initial) 16, follow-up 13 days), 14; in experiment [1] (Patient 7, 150 μg/kg, NIH SS (Initial) 17, follow-up 19 days), 12; in experiment [1] (Patient 8*, 75 μg/kg, NIH SS (Initial) 4, follow-up 8 days) it was 2. Moreover, the “NIH SS (Discharge)” value in experiment [1] (Patient 10*, 75 μg/kg, NIH SS (Initial) 4, follow-up 5 days) was 3; in experiment [1] (Patient 11*, 3 μg/kg, NIH SS (Initial) 18, follow-up 7 days), 20; in experiment [3], 2. For the same substance, the “statistical independence between treated and placebo groups, improved outcome (Fisher's exact test)” value is on record as “No statistical significance” in experiment [1] (Table 4, patients enrolled at MGH) and “No statistical significance” in experiment [1] (Table 5, subset of 7 patients). The “outcome of penumbra predicted at risk of infarction by the risk map, on follow-up FLAIR” value in experiment [2] is “does not go on to infarction”.

(Values after patent publication US7020578B2, “Method for evaluating novel, stroke treatments using a tissue risk map” (The General Hospital Corporation, priority 2000, dated 2006).)
